The target of experiment [1] is human glucagon receptor (hGCGR) (Homo sapiens, UniProt P47871). The experiment is described as follows: cAMP production (HTRF) in CHO cells expressing hGCGR. The following applies: geometric mean, read-out: hGluc-R EC50. Type of experiment: cell-based. Set-up: expressed in transfected cells. A digest of the protocol:
(§1)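 Read-out: HTRF cAMP (anti-cAMP cryptate donor, cAMP-d2 acceptor in conjugate/lysis buffer), converted to % Delta F and fitted by 4-parameter logistic for EC50. Cell densities were 1×10^5 cells/mL (hGLP-1R) or 2×10^5 cells/mL (hGCGR). Stimulation lasted 30 min at room temperature.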
For orientation: Cyclic AMP is a second messenger, typically raised through Gs and lowered through Gi signalling.

The target of experiment [2] is human GLP-1 receptor (hGLP-1R) (Homo sapiens, UniProt P43220). Kind of experiment: cAMP production (HTRF) in CHO cells expressing hGLP-1R. Set-up: expressed in transfected cells. Conditions: for EC50: geometric mean, read-out: hGLP-1R EC50; for % Relative Potency Ratio: % GLP-1R activity relative to GLP-1 / % GlucR activity relative to glucagon. Type of experiment: cell-based. Put shortly: as §1

The mark [3] stands for this setting: Table 7, peptides modified at position 20, cAMP in CHO hGCGR cells.
[4] abbreviates: Table 7, peptides modified at position 20, cAMP in CHO hGLP-1R cells.
[5] abbreviates: Table 6, peptides modified at position 17, cAMP in CHO hGCGR cells.
[6] abbreviates: Table 6, peptides modified at position 17, cAMP in CHO hGLP-1R cells.

Structures are written as SMILES. Where two headings read alike, the source gives them in different places. Starred links: 1 amine or outer side, 2 acyl side, 3 side chain; linkers in the order of their positions; H or OH if unused. Non-standard residues stand in square brackets, D forms with d. Residues, ends and D or L forms follow the SMILES beside them. Groups on a side chain read outwards from the residue. *: point of attachment. C20 diacid = O=C(O)CCCCCCCCCCCCCCCCCCC(=O)*; C18 diacid = O=C(O)CCCCCCCCCCCCCCCCC(=O)*; γGlu = O=C(O)[C@H](CCC(=O)[*:2])N[*:1]; αMeF = C[C@](N)(Cc1ccccc1)C(=O)O; AEEA = NCCOCCOCC(=O)O; Aib = CC(C)(N)C(=O)O

human glucagon receptor (hGCGR), sequence (P47871 26-477): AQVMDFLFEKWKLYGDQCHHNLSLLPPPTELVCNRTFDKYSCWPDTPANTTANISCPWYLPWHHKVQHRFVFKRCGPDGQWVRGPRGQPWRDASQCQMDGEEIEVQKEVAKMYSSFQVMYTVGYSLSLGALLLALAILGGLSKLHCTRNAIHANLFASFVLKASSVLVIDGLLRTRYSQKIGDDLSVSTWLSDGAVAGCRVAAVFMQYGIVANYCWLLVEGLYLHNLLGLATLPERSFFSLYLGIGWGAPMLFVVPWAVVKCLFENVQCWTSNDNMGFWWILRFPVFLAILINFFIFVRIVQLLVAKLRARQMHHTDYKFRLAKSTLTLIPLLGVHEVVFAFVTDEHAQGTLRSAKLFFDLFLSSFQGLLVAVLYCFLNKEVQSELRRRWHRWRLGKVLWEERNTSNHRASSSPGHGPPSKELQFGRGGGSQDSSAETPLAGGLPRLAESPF
human GLP-1 receptor (hGLP-1R), sequence (P43220 24-463): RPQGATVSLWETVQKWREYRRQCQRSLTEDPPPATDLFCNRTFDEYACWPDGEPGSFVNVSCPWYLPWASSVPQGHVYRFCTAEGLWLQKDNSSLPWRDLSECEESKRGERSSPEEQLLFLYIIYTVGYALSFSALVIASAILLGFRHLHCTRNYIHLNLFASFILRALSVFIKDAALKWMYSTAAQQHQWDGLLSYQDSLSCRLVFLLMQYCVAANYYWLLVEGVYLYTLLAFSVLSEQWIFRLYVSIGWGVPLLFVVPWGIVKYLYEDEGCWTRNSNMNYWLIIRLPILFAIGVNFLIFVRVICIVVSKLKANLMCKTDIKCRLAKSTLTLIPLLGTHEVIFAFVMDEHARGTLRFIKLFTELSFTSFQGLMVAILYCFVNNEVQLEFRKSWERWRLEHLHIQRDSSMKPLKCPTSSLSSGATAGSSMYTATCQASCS

Consider `CC[C@H](C)[C@H](NC(=O)[C@H](Cc1c[nH]c2ccccc12)NC(=O)[C@H](CCC(N)=O)NC(=O)[C@@H](NC(=O)[C@](C)(Cc1ccccc1)NC(=O)[C@H](CC(=O)O)NC(=O)[C@H](CCCCNC(=O)COCCOCCNC(=O)COCCOCCNC(=O)CC[C@H](NC(=O)CC[C@H](NC(=O)CCCCCCCCCCCCCCCCC(=O)O)C(=O)O)C(=O)O)NC(=O)[C@H](C)NC(=O)[C@H](C)NC(=O)[C@H](CCCNC(=N)N)NC(=O)[C@H](CO)NC(=O)[C@H](CC(=O)O)NC(=O)[C@H](CC(C)C)NC(=O)[C@](C)(Cc1ccccc1)NC(=O)[C@H](CCCCN)NC(=O)[C@H](CO)NC(=O)[C@@H](NC(=O)[C@H](CC(=O)O)NC(=O)[C@H](CO)NC(=O)[C@@H](NC(=O)[C@](C)(Cc1ccccc1)NC(=O)[C@H](CO)NC(=O)CNC(=O)[C@H](Cc1c[nH]cn1)NC(=O)C(C)(C)NC(=O)[C@@H](N)Cc1c[nH]cn1)[C@@H](C)O)C(C)C)C(C)C)C(=O)N[C@@H](C)C(=O)N[C@@H](CC(N)=O)C(=O)N[C@H](C(=O)NCC(=O)NCC(N)=O)[C@@H](C)O` [Peptide 241] (H-H[Aib]HGS[αMeF]TSDVSK[αMeF]LDSRAAK([AEEA-AEEA-γGlu-γGlu-C18 diacid])D[αMeF]VQWIANTGG-NH2; N-terminus assumed), for which the EC50 – broadly, the concentration giving half of the maximal effect – in experiment [1] (setting [3]) came to 0.175 nM; in experiment [2] (setting [4]), 0.0358 nM. In addition, the “% Relative Potency Ratio” value in experiment [2] (Table 7) came to 9.7.

Consider `CC[C@H](C)[C@H](NC(=O)[C@H](Cc1c[nH]c2ccccc12)NC(=O)[C@H](CCC(N)=O)NC(=O)[C@@H](NC(=O)[C@H](Cc1ccccc1)NC(=O)[C@H](CC(=O)O)NC(=O)[C@H](CCCCNC(=O)COCCOCCNC(=O)COCCOCCNC(=O)CC[C@H](NC(=O)CC[C@H](NC(=O)CCCCCCCCCCCCCCCCCCC(=O)O)C(=O)O)C(=O)O)NC(=O)[C@H](C)NC(=O)[C@H](C)NC(=O)[C@H](CCCNC(=N)N)NC(=O)[C@H](CO)NC(=O)[C@H](CC(=O)O)NC(=O)[C@H](CC(C)C)NC(=O)[C@](C)(Cc1ccccc1)NC(=O)[C@H](CCCCN)NC(=O)[C@H](CO)NC(=O)[C@@H](NC(=O)[C@H](CC(=O)O)NC(=O)[C@H](CO)NC(=O)[C@@H](NC(=O)[C@H](Cc1ccccc1)NC(=O)[C@@H](NC(=O)CNC(=O)[C@H](Cc1c[nH]cn1)NC(=O)C(C)(C)NC(=O)[C@@H](N)Cc1c[nH]cn1)[C@@H](C)O)[C@@H](C)O)C(C)C)C(C)C)C(=O)N[C@@H](C)C(=O)N[C@@H](CC(N)=O)C(=O)N[C@H](C(N)=O)[C@@H](C)O` [Peptide 305], for which the values for the EC50 in experiment [1] (setting [3]) and in experiment [2] (setting [4]) were 0.155 nM and 0.211 nM, respectively. Besides, the “% Relative Potency Ratio” value in experiment [2] (Table 7) is listed as 1.5.

For the compound `CC(C)C[C@H](NC(=O)[C@H](Cc1c[nH]c2ccccc12)NC(=O)[C@H](CCCNC(=N)N)NC(=O)[C@@H](NC(=O)[C@H](Cc1ccccc1)NC(=O)[C@H](CC(=O)O)NC(=O)[C@H](CCC(N)=O)NC(=O)[C@H](C)NC(=O)[C@H](CCCNC(=N)N)NC(=O)[C@H](CCCCNC(=O)COCCOCCNC(=O)COCCOCCNC(=O)CCCCCCCCCCCCCCCCC(=O)O)NC(=O)[C@H](CO)NC(=O)[C@H](CC(=O)O)NC(=O)[C@H](CC(C)C)NC(=O)[C@](C)(Cc1ccccc1)NC(=O)[C@H](CCCCN)NC(=O)[C@H](CO)NC(=O)[C@@H](NC(=O)[C@H](CC(=O)O)NC(=O)[C@H](CO)NC(=O)[C@@H](NC(=O)[C@H](Cc1ccccc1)NC(=O)[C@@H](NC(=O)CNC(=O)[C@H](CCC(N)=O)NC(=O)C(C)(C)NC(=O)[C@@H](N)Cc1c[nH]cn1)[C@@H](C)O)[C@@H](C)O)C(C)C)C(C)C)C(=O)N[C@@H](CC(C)C)C(=O)N[C@@H](CCC(=O)O)C(=O)NC(C)(C)C(=O)NCC(=O)O` [Peptide 181] (H-H[Aib]QGTFTSDVSK[αMeF]LDSK([AEEA-AEEA-C18 diacid])RAQDFVRWLLE[Aib]G-OH; N-terminus assumed), the results for the 50% effective concentration (EC50) in experiment [1] (setting [5]) and in experiment [2] (setting [6]) were 0.0334 nM and 0.056 nM, respectively. The “% Relative Potency Ratio” value in experiment [2] (Table 6) is recorded as 1.2.

`CC(C)C[C@H](NC(=O)[C@H](Cc1c[nH]c2ccccc12)NC(=O)[C@H](CCCNC(=N)N)NC(=O)[C@@H](NC(=O)[C@H](Cc1ccccc1)NC(=O)[C@H](CC(=O)O)NC(=O)[C@H](CCC(N)=O)NC(=O)[C@H](C)NC(=O)[C@H](CCCNC(=N)N)NC(=O)[C@H](CCCCNC(=O)COCCOCCNC(=O)COCCOCCNC(=O)CC[C@H](NC(=O)CCCCCCCCCCCCCCCCCCC(=O)O)C(=O)O)NC(=O)[C@H](CO)NC(=O)[C@H](CCC(=O)O)NC(=O)[C@H](CC(C)C)NC(=O)[C@](C)(Cc1ccccc1)NC(=O)[C@H](CCCCN)NC(=O)[C@H](CO)NC(=O)[C@@H](NC(=O)[C@H](CC(=O)O)NC(=O)[C@H](CO)NC(=O)[C@@H](NC(=O)[C@H](Cc1ccccc1)NC(=O)[C@@H](NC(=O)CNC(=O)[C@H](CCC(N)=O)NC(=O)C(C)(C)NC(=O)[C@@H](N)Cc1c[nH]cn1)[C@@H](C)O)[C@@H](C)O)C(C)C)C(C)C)C(=O)N[C@@H](CCC(=O)O)C(=O)N[C@@H](C)C(=O)NC(C)(C)C(=O)NCC(=O)O` [Peptide 416] (H-H[Aib]QGTFTSDVSK[αMeF]LESK([AEEA-AEEA-γGlu-C20 diacid])RAQDFVRWLEA[Aib]G-OH; N-terminus assumed): the EC50 is 0.581 nM in experiment [1] (setting [5]) and 0.0677 nM in experiment [2] (setting [6]). Also, the “% Relative Potency Ratio” value in experiment [2] (Table 6) is reported as 17.0.

Turning to `CC(C)C[C@H](NC(=O)[C@H](Cc1c[nH]c2ccccc12)NC(=O)[C@H](CCCNC(=N)N)NC(=O)[C@@H](NC(=O)[C@H](Cc1ccccc1)NC(=O)[C@H](CC(=O)O)NC(=O)[C@H](CCC(N)=O)NC(=O)[C@H](C)NC(=O)[C@H](CCCNC(=N)N)NC(=O)[C@H](CCCCNC(=O)COCCOCCNC(=O)COCCOCCNC(=O)CC[C@H](NC(=O)CCCCCCCCCCCCCCCCCCC(=O)O)C(=O)O)NC(=O)[C@H](CCCCN)NC(=O)[C@H](CC(=O)O)NC(=O)[C@H](CC(C)C)NC(=O)[C@](C)(Cc1ccccc1)NC(=O)[C@H](CCCCN)NC(=O)[C@H](CO)NC(=O)[C@@H](NC(=O)[C@H](CC(=O)O)NC(=O)[C@H](CO)NC(=O)[C@@H](NC(=O)[C@H](Cc1ccccc1)NC(=O)[C@@H](NC(=O)CNC(=O)[C@H](CCC(N)=O)NC(=O)C(C)(C)NC(=O)[C@@H](N)Cc1c[nH]cn1)[C@@H](C)O)[C@@H](C)O)C(C)C)C(C)C)C(=O)N[C@@H](CC(C)C)C(=O)NC(C)(C)C(=O)N[C@@H](CCC(=O)O)C(N)=O` [Peptide 441] (H-H[Aib]QGTFTSDVSK[αMeF]LDKK([AEEA-AEEA-γGlu-C20 diacid])RAQDFVRWLL[Aib]E-NH2; N-terminus assumed), the EC50 in experiment [1] (setting [5]) was found to be 0.0728 nM; in experiment [2] (setting [6]) it was 0.0627 nM. In addition, the “% Relative Potency Ratio” value in experiment [2] (Table 6) was found to be 2.3.

As for `CC[C@H](C)[C@H](NC(=O)C(C)(C)NC(=O)[C@H](CCCCNC(=O)COCCOCCNC(=O)COCCOCCNC(=O)CC[C@H](NC(=O)CCCCCCCCCCCCCCCCC(=O)O)C(=O)O)NC(=O)[C@@H](NC(=O)[C@](C)(Cc1ccccc1)NC(=O)[C@H](CC(=O)O)NC(=O)[C@H](CCC(N)=O)NC(=O)[C@H](C)NC(=O)[C@H](C)NC(=O)[C@H](CCC(N)=O)NC(=O)[C@H](CO)NC(=O)[C@H](CC(=O)O)NC(=O)[C@H](CC(C)C)NC(=O)[C@](C)(Cc1ccccc1)NC(=O)[C@H](CCCCN)NC(=O)[C@H](CO)NC(=O)[C@@H](NC(=O)[C@H](CC(=O)O)NC(=O)[C@H](CO)NC(=O)[C@@H](NC(=O)[C@](C)(Cc1ccccc1)NC(=O)[C@H](CO)NC(=O)CNC(=O)[C@H](Cc1c[nH]cn1)NC(=O)C(C)(C)NC(=O)[C@@H](N)Cc1c[nH]cn1)[C@@H](C)O)C(C)C)C(C)C)C(=O)N[C@@H](C)C(=O)N[C@@H](CC(N)=O)C(=O)N[C@H](C(N)=O)[C@@H](C)O` [Peptide 383] (H-H[Aib]HGS[αMeF]TSDVSK[αMeF]LDSQAAQD[αMeF]VK([AEEA-AEEA-γGlu-C18 diacid])[Aib]IANT-NH2; N-terminus assumed), the EC50 in experiment [1] (cAMP, CHO cells, 0.1% BSA) was determined as 0.232 nM; in experiment [2] (cAMP, CHO cells, 0.1% BSA), 0.197 nM. The “% Relative Potency Ratio” value in experiment [2] is reported as 2.3.

With `CC(C)C[C@H](NC(=O)[C@H](Cc1c[nH]c2ccccc12)NC(=O)[C@H](CCCNC(=N)N)NC(=O)[C@@H](NC(=O)[C@H](Cc1ccccc1)NC(=O)[C@H](CC(=O)O)NC(=O)[C@H](CCC(N)=O)NC(=O)[C@H](C)NC(=O)[C@H](CCCNC(=N)N)NC(=O)[C@H](CCCCNC(=O)COCCOCCNC(=O)COCCOCCNC(=O)CC[C@H](NC(=O)CCCCCCCCCCCCCCCCCCC(=O)O)C(=O)O)NC(=O)[C@@H](NC(=O)[C@H](CC(=O)O)NC(=O)[C@H](CC(C)C)NC(=O)[C@](C)(Cc1ccccc1)NC(=O)[C@H](CCCCN)NC(=O)[C@H](CO)NC(=O)[C@@H](NC(=O)[C@H](CC(=O)O)NC(=O)[C@H](CO)NC(=O)[C@@H](NC(=O)[C@H](Cc1ccccc1)NC(=O)[C@@H](NC(=O)CNC(=O)[C@H](CCC(N)=O)NC(=O)C(C)(C)NC(=O)[C@@H](N)Cc1c[nH]cn1)[C@@H](C)O)[C@@H](C)O)C(C)C)[C@@H](C)O)C(C)C)C(=O)N[C@@H](CC(C)C)C(=O)N[C@@H](CCC(=O)O)C(=O)NC(C)(C)C(=O)N[C@@H](CCCCN)C(N)=O` [Peptide 479] (H-H[Aib]QGTFTSDVSK[αMeF]LDTK([AEEA-AEEA-γGlu-C20 diacid])RAQDFVRWLLE[Aib]K-NH2; N-terminus assumed), the EC50 in experiment [1] (setting [5]) was 0.207 nM; in experiment [2] (setting [6]) it was 0.0342 nM. Moreover, in experiment [2] (Table 6), the “% Relative Potency Ratio” value is listed as 12.0.
